Drawing on US20200291350A1, “HEPATOCYTE CONSTRUCT AND METHOD FOR PRODUCING THE SAME” (NIHON KOHDEN CORPORATION, priority 2019, published 2020), this text covers hepatocellular ballooning for two molecules.

What all share (format): cell-based
Test [1] concerns mouse hepatocyte/NHDF cell sheet. Nature of the test: Effect of added agent on ballooning of mouse hepatocytes in PMH/NHDF hepatocyte construct (H&E staining). Particulars: metformin 500 μM added on day 1; mouse hepatocyte/NHDF cell sheet day 8. How it is done:
(§1) At pre-determined time points, cell sheet samples were washed by pre-warmed PBS twice and fixed in 4% paraformaldehyde at room temperature for 1 h. Fixed cell sheets were embedded in paraffin, sliced into 4 μm sections and deparaffinized for standard histological staining with hematoxylin and eosin (HE). For immunostainings of cytokeratin 8+18 (CK8/18), sections were treated with Dako proteinase K (Agilent, Santa Clara, Calif., US) for antigen retrieval, incubated in Dako REAL peroxidase-blocking solution (Agilent) to quench endogenous peroxidase activity, and then blocked in Blocking One Histo (Nacalai Tesque, Kyoto, Japan). After that, the sections were incubated with mouse anti-human CK8/18 at 25-fold dilution (Abeam, Cambridge, UK) followed by incubation with horseradish […] donkey anti-mouse IgG H&L (Abeam). The sections were dyed with Dako Liquid DAB+Substrate Chromogen System (Agilent) and the nuclei were stained with hematoxylin. Finally, the sections were mounted, dried and imaged with a light microscope (Nikon).
Primary mouse hepatocytes (PMH) were obtained in the same manner as in Example 3.
As NHDFs, NHDFs used in Example 1 were used.
Primary mouse hepatocytes (PMH)/NHDF co-culture and production of a hepatocyte construct were performed in the same manner as in Example 1 except that PMHs were used in place of the above-mentioned PHHs. […]

In a further test the test system is PHH/NHDF cell sheet. Nature of the test: Effect of added agent on ballooning of human hepatocytes in PHH/NHDF hepatocyte construct (H&E staining). Conditions: metformin 500 μM added on day 1; PHH/NHDF cell sheet on day 11 or day 4. How it is done:
as §1
As PHHs and NHDFs, PHHs and NHDFs used in Example 1 were used.
Primary human hepatocytes (PHH)/NHDF co-culture and production of a hepatocyte construct were performed in the same manner as in Example 1 described above. […]

The subject of test [2] is mouse hepatocyte/NHDF cell sheet. Nature of the test: Hepatocellular ballooning in mouse hepatocyte/NHDF cell sheet made with mitomycin C-treated NHDFs (H&E staining). Particulars: NHDFs treated with mitomycin C 6 μg/mL for 2.5 hours before co-culture with PMHs; cell sheet day 8; vs untreated NHDFs. Here is the method:
as §1
Primary mouse hepatocytes (PMH) were isolated from the liver of a mouse by a modified two-step collagenase perfusion method and purified by a 45% percoll density gradient centrifugation method. The viability of PMHs was 90%.
As NHDFs, NHDFs used in Example 1 were used. […]

Each structure is given as a SMILES string.

Turning to `CN(C)C(=N)N=C(N)N` [metformin], the hepatocellular ballooning entry (in test [1]; with PHH/NHDF cell sheet) was “suppressed” throughout.
Consider `CO[C@@]12[C@H](COC(N)=O)C3=C(C(=O)C(C)=C(N)C3=O)N1C[C@@H]1N[C@@H]12` [mitomycin C], for which the hepatocellular ballooning entry in test [2] was “suppressed”.
